Some results are limits rather than exact numbers.

What all share (assay): Bacterial panel testing, MIC by broth microdilution
Holding throughout (format): cell-based
Common to all, as to conditions: 20-24 hours growth

In assay [1] the test system is Pseudomonas aeruginosa. The procedure: (§1) One to three colonies of bacteria were picked from an Mueller-Hinton or Brain Heart infusion agar plate (depending on the bacterial strain) and transferred to 3 ml Mueller-Hinton broth or Brain Heart infusion media (depending on the bacterial strain). Bacteria were allowed to grow for 2-4 hours in an incubator at 37° C. Bacteria-inoculated media were dispersed in 0.9% saline to match McFarland standard density. 100 μl standardized inoculation was added to 20 ml media (dilution 1). 10 μl of the new dilution was added to 990 μl media and mixed (dilution 2). 10 μl of dilution 2 was spread on an agar plate and allowed to grow overnight. Colonies were then […].
(§2) Test compound was diluted to 10 μg/ml in dimethylsulfoxide. Four μl of Rifampicin antibiotic was loaded into row H, column 2.
(§3) All wells were then filled with 100 μl of inoculated media (dilution 1 from Example 1). A further 100 μl of the inoculated media was then added to column 2 and the contents are pipetted to thoroughly mix the contents. A full 100 μl was then transferred from column 2 and mixed into column 3. This process was continued from left to right until columns 2-12 were serially diluted, and the final draw from column 12 was discarded. The plates were covered with 3M sealing tape (plates containing Enterococcus faecium were sealed with Air Pore sealing tape) and allowed to grow for 20-24 hours. Cytotoxic wells (clear wells) are then scored and the potency of the compound was determined.

Assay [2] relates to Salmonella choleraesuis. The method, then:
as §1, §2, §3

Assay [3] relates to Eschericia coli. The procedure: as §1, §2, §3
The subject of assay [4] is Enterococcus faecium. The procedure:
as §1, §2, §3

Regarding `Cl.Cl.Cl.Cl.Cl.Cl.Cl.N=C(N)NCCCCCCSCC1OC2OC3C(CSCCCCCCNC(=N)N)OC(OC4C(CSCCCCCCNC(=N)N)OC(OC5C(CSCCCCCCNC(=N)N)OC(OC6C(CSCCCCCCNC(=N)N)OC(OC7C(CSCCCCCCNC(=N)N)OC(OC8C(CSCCCCCCNC(=N)N)OC(OC1C(O)C2O)C(O)C8O)C(O)C7O)C(O)C6O)C(O)C5O)C(O)C4O)C(O)C3O` (stereo not drawn), the “MIC PA” value in assay [1] was more than 200 µg/mL. Besides, the “MIC SC” value in assay [2] is more than 200 µg/mL. The “MIC EC” value in assay [3] is more than 200 µg/mL. Also, the “MIC EF” value in assay [4] is more than 200 µg/mL.
Take `CCCCCCCCCC[N+]12CC[N+](CC(=O)NCC3OC4OC5C(CNC(=O)C[N+]67CC[N+](CCCCCCCCCC)(CC6)CC7)OC(OC6C(CNC(=O)C[N+]78CC[N+](CCCCCCCCCC)(CC7)CC8)OC(OC7C(CNC(=O)C[N+]89CC[N+](CCCCCCCCCC)(CC8)CC9)OC(OC8C(CNC(=O)C[N+]9%10CC[N+](CCCCCCCCCC)(CC9)CC%10)OC(OC9C(CNC(=O)C[N+]%10%11CC[N+](CCCCCCCCCC)(CC%10)CC%11)OC(OC%10C(CNC(=O)C[N+]%11%12CC[N+](CCCCCCCCCC)(CC%11)CC%12)OC(OC3C(O)C4O)C(O)C%10O)C(O)C9O)C(O)C8O)C(O)C7O)C(O)C6O)C(O)C5O)(CC1)CC2` (stereo not drawn): the “MIC EF” value in assay [4] is more than 200 µg/mL.
`CC(C)(C)[Si](C)(C)OC1CNC(C(=O)NCC2OC3OC4C(CNC(=O)C5CC(O[Si](C)(C)C(C)(C)C)CN5)OC(OC5C(CNC(=O)C6CC(O[Si](C)(C)C(C)(C)C)CN6)OC(OC6C(CNC(=O)C7CC(O[Si](C)(C)C(C)(C)C)CN7)OC(OC7C(CNC(=O)C8CC(O[Si](C)(C)C(C)(C)C)CN8)OC(OC8C(CNC(=O)C9CC(O[Si](C)(C)C(C)(C)C)CN9)OC(OC9C(CNC(=O)C%10CC(O[Si](C)(C)C(C)(C)C)CN%10)OC(OC2C(O)C3O)C(O)C9O)C(O)C8O)C(O)C7O)C(O)C6O)C(O)C5O)C(O)C4O)C1.O=C(O)C(F)(F)F.O=C(O)C(F)(F)F.O=C(O)C(F)(F)F.O=C(O)C(F)(F)F.O=C(O)C(F)(F)F.O=C(O)C(F)(F)F.O=C(O)C(F)(F)F` (stereo not drawn): the “MIC PA” value in assay [1] was more than 200 µg/mL. The “MIC EF” value in assay [4] was more than 200 µg/mL.
As for `OC1C2OC(CNC3CCCc4ccccc43)C(OC3OC(CNC4CCCc5ccccc54)C(OC4OC(CNC5CCCc6ccccc65)C(OC5OC(CNC6CCCc7ccccc76)C(OC6OC(CNC7CCCc8ccccc87)C(OC7OC(CNC8CCCc9ccccc98)C(OC8OC(CNC9CCCc%10ccccc%109)C(O2)C(O)C8O)C(O)C7O)C(O)C6O)C(O)C5O)C(O)C4O)C(O)C3O)C1O` (stereo not drawn), the “MIC PA” value in assay [1] was more than 200 µg/mL. In addition, the “MIC EC” value in assay [3] is more than 200 µg/mL. Moreover, in assay [4], the “MIC EF” value was more than 200 µg/mL.
As for `CC(C)[C@H](C)NCC1OC2OC3C(CN[C@@H](C)C(C)C)OC(OC4C(CN[C@@H](C)C(C)C)OC(OC5C(CN[C@@H](C)C(C)C)OC(OC6C(CN[C@@H](C)C(C)C)OC(OC7C(CN[C@@H](C)C(C)C)OC(OC8C(CN[C@@H](C)C(C)C)OC(OC1C(O)C2O)C(O)C8O)C(O)C7O)C(O)C6O)C(O)C5O)C(O)C4O)C(O)C3O` (stereo partly drawn), in assay [1], the “MIC PA” value was more than 200 µg/mL. In assay [4], the “MIC EF” value was more than 200 µg/mL.
For the molecule `Oc1cccnc1NCC1OC2OC3C(CNc4ncccc4O)OC(OC4C(CNc5ncccc5O)OC(OC5C(CNc6ncccc6O)OC(OC6C(CNc7ncccc7O)OC(OC7C(CNc8ncccc8O)OC(OC8C(CNc9ncccc9O)OC(OC1C(O)C2O)C(O)C8O)C(O)C7O)C(O)C6O)C(O)C5O)C(O)C4O)C(O)C3O` (stereo not drawn), the “MIC PA” value in assay [1] was more than 200 µg/mL. Besides, the “MIC SC” value in assay [2] was more than 200 µg/mL. Besides, the “MIC EC” value in assay [3] is more than 200 µg/mL.
As to `OC1C2OC(CNCc3cccc4ccccc34)C(OC3OC(CNCc4cccc5ccccc45)C(OC4OC(CNCc5cccc6ccccc56)C(OC5OC(CNCc6cccc7ccccc67)C(OC6OC(CNCc7cccc8ccccc78)C(OC7OC(CNCc8cccc9ccccc89)C(OC8OC(CNCc9cccc%10ccccc9%10)C(O2)C(O)C8O)C(O)C7O)C(O)C6O)C(O)C5O)C(O)C4O)C(O)C3O)C1O` (stereo not drawn), the “MIC PA” value in assay [1] was more than 200 µg/mL. The “MIC SC” value in assay [2] is more than 200 µg/mL. For the same molecule, the “MIC EC” value in assay [3] was more than 200 µg/mL.

These data come from patent publication US20110071108A1, “Beta-Cyclodextrin Derivatives as Antibacterial Agents” (Pinnacle Pharmaceuticals, Inc., priority 2005, published 2011).
